From patent US8022103B2, “Ester prodrugs of prostratin and related phorbol compounds” (Salvia Sciences, Inc., priority 2005, dated 2011)
In brackets after ≈: the same amount, converted by molar mass. Read-outs that look alike come from different tables or passages of the source.

How the values were obtained:
[1] = tested on: human monocytes/macrophages; assay: MTS staining for macrophage viability (cytotoxicity); format: cell-based
Protocol: Anti-HIV efficacy evaluation in human monocyte/macrophages. Following 6 to 14 days in culture, the monocyte/macrophages cultures were washed 3 times to remove any non-adherent cells, and serially diluted test compounds were added followed by the addition of a pre-titered amount of HIV. Cultures were washed a final time by media removal 24 h post infection, fresh compound added and the cultures continued for an additional six days. Assays were performed using a standardized microtiter plate format developed by the Infectious Disease Research Department of Southern Research Institute. […] At assay termination, virus replication was measured by collecting cell-free supernatant samples, which were analyzed for HIV p24 antigen content using a commercially available p24 ELISA assay (Coulter). Following removal of supernatant samples, compound cytotoxicity was measured by addition of MTS to the plates for determination of cell viability. […]
MTS staining for macrophage viability to measure cytotoxicity. At assay termination, the assay plates were stained with the soluble tetrazolium-based dye MTS (CellTiter Reagent, Promega) to determine cell viability and quantify compound cytotoxicity. MTS is metabolized by the mitochondrial enzymes of metabolically active cells to yield a soluble formazan product, allowing the rapid quantitative analysis of cell viability and compound cytotoxicity. […]

[2] = Solubility in pH controlled solutions and intravenous formulations; format: physicochemical
Protocol: Solubility of prostratin and SA-101B was measured in pH controlled solutions and in various representative formulations, in particular, intravenous formulations, where solubility is often a limiting factor.

HCV RNA replicon = HCV RNA replicon luciferase assay; format: cell-based
Protocol: Compounds SA-101A and SA-101B were evaluated for their effect on HCV RNA replicons using an in vitro HCV virus replication system.
Compound preparation. Compounds were prepared as a powder (˜1 mg) and solubilized in DMSO. IFNα was used as a positive antiviral control.
HCV RNA replicon system. The assay for HCV replication employed cell line ET (luc-ubi-neo/ET), which is a human Huh7 hepatoma cell line that contains an HCV RNA replicon with a stable luciferase (Luc) reporter and three cell culture-adaptive mutations (Pietschmann et al., 2002, J. Virol. 76:4008-4021). […]
Luciferase assay. […] Compound IC50 and IC90 values (antiviral activity) are derived from plots of HCV RNA levels assessed as HCV RNA replicon-derived Luc activity versus drug concentration using Steady-Glo assay reagent (Promega), with Luc luminescence read on a 1450 Microbeta liquid scintillation and luminescence counter. Compound TC50 and TC90 values (cytotoxicity) are calculated from plots of cell number vs. drug concentration using data from the CytoTox-ONE cell proliferation assay (Promega); with fluorescence read using an Analyst HT fluorometer. […] Compound selectivity indices (SI=TC/IC) SI50 and SI90 values are calculated from spreadsheets.

Structure (SMILES) | TC50 ([1]; 40% Human AB serum) | Solubility 5% Dextrose ([2]; 5% Dextrose) | Solubility Saline (0.9% NaCl) ([2]; Saline (0.9% NaCl)) | Solubility compared with prostratin ([2]; all media) | Solubility pH 1 ([2]; pH 1) | Solubility pH 2 ([2]; pH 2) | Solubility pH 5 ([2]; pH 5) | Solubility pH 7.5 ([2]; pH 7.5) | Solubility pH 9 ([2]; pH 9) | EC50 (HCV RNA replicon) (HCV RNA replicon; ET cell line, luciferase, 72 hr) | TC50 [1] | solubility ([2]; 5% dextrose (intravenous formulation), saline or isotonic, read-out: Solubility 5% Dextrose) | solubility ([2]; pH controlled solution, pH 1, simulated gastric fluid, read-out: Solubility pH 1) | solubility ([2]; pH controlled solution, pH 2, simulated gastric fluid, read-out: Solubility pH 2) | solubility ([2]; pH controlled solution, pH 5, aqueous buffer, read-out: Solubility pH 5) | solubility ([2]; pH controlled solution, pH 7.5, aqueous buffer, read-out: Solubility pH 7.5) | solubility ([2]; pH controlled solution, pH 9, aqueous buffer, read-out: Solubility pH 9) | solubility ([2]; saline (0.9% NaCl) (intravenous formulation), saline or isotonic, read-out: Solubility Saline (0.9% NaCl)) | Inhibition of HCV RNA replicon associated luciferase activity (HCV RNA replicon; lowest concentrations employed in the assay)
CC(=O)OC12CC(C)C3(O)C(C=C(COC(=O)CCC(=O)O)CC4(O)C(=O)C(C)=CC43)C1C2(C)C (stereo not shown) [SA-101B, Prostratin Succinate] | 21.0 mg/L | >10 mg/mL | >10 mg/mL | better solubility than prostratin | 1.21 mg/mL | 4.46 mg/mL | 7.72 mg/mL | 11.20 mg/mL | 12.08 mg/mL | EC50 was not reached | – | – | – | – | – | – | – | – | –
CC(=O)O[C@@]12C[C@@H](C)[C@@]3(O)[C@@H](C=C(CO)C[C@]4(O)C(=O)C(C)=C[C@@H]34)[C@@H]1C2(C)C [SA-101A, 12-deoxyphorbol 13-acetate] | – | – | – | – | – | – | – | – | – | – | 17.3 mg/L (≈ 44.3 µM) | 0.33 mg/mL (≈ 845 µM) | 0.37 mg/mL (≈ 948 µM) | 0.37 mg/mL (≈ 948 µM) | 0.45 mg/mL (≈ 1150 µM) | 0.42 mg/mL (≈ 1080 µM) | 0.39 mg/mL (≈ 999 µM) | 0.34 mg/mL (≈ 871 µM) | greater than 50%
